According to PMC9920260, “Chemical Modification of Auranofin Yields a New Family of Anticancer Drug Candidates: The Gold(I) Phosphite Analogues” (Molecules, 2023):
Where two headings read alike, the source gives them in different places.

What was measured:
[1] = Water solubility by quantitative 1H NMR of saturated solution; assay type: physicochemical; conditions: saturated solution in D2O, heated to 40 °C and sonicated 90 min, cooled to room temperature, quantitative 1HNMR vs Me2SO2
Procedure: (§1) For determining the solubility of investigated compounds, 5 mg of the selected gold(I) complex was suspended in an Eppendorf test tube with 300 μL of D2O and 300 μL of a Me2SO2/D2O solution 6.94 mM (Me2SO2 final conc. 3.47 mM). The suspension was heated to 40 °C and sonicated for 90 min. The resulting saturated solution was left to cool to room temperature, decanted, transferred to an NMR tube and then analyzed through quantitative ^1HNMR spectroscopy (tilt angle = 45°; recycle delay = 4 s; number of scans = 16). The concentration (solubility) was calculated by the relative integral (related to phosphine or phosphite -CH3 groups) with respect to Me2SO2 singlet (δ = 3.14 ppm). LogP values were determined through a modification of the shake-flask method reported in [22]. More precisely, in a 15 mL Falcon tube, roughly 2 mg of the sample was added in 2 mL of n-octanol-saturated water and 2 mL of water-saturated n-octanol. The mixture was hand shaken for ten minutes, and then 0.5 mL of each phase were moved in two different mineralization tubes together with 1 mL of metal-free concentrated nitric acid. The mixtures were heated overnight at 90 °C, then diluted with 4.5 mL of ultrapure water. The gold concentration in each sample was determined through ICP-OES and the respective LogP values were calculated through the ratio between octanol and water gold concentrations.

[2] = set-up: method as in PMID 29057040; conditions: reported values; cited from earlier work
[3] = LogP, modified shake-flask method with ICP-OES gold determination; assay type: physicochemical; conditions: n-octanol/water, gold concentration by ICP-OES
Procedure: as §1

[4] = system: A2780 ovarian cancer cells; test: MTT cytotoxicity assay, A2780; assay type: cell-based, human; conditions: A2780, 72 h of treatment, three independent experiments
Procedure: (§2) RPMI 1640 cell culture medium, fetal bovine serum (FBS), and phosphate-buffered saline (PBS) were obtained from Euroclone (Milan, Italy). Thiazolyl blue tetrazolium bromide (MTT) was obtained from Merck Life Science (Milan, Italy). The human ovarian cancer cell lines A2780, A2780/CDDP-R (cisplatin-resistant) and SKOV3 were obtained from ATCC. Cell lines were maintained in RPMI-1640 supplemented with 10% fetal calf serum (FCS) and antibiotics (penicillin, 100 U/mL; streptomycin, 100 μg/mL) at 37 °C in a 5% CO2 humidified atmosphere and subcultured twice weekly. Split 1:5 (3–6 × 10^4 cells per mL).
(§3) The cytotoxic effects of auranofin analogues on ovarian cancer cell lines were determined by using the colourimetric MTT (3-(4,5-dimethylthiazol-2-yl)-2,5-diphenyltetrazolium bromide) assay. Viable cells can metabolize MTT into formazan, a blue-coloured compound that is detectable at 595 nm. […] Following precipitation, blue formazan was dissolved in 100 µL of DMSO, and the optical density was read in a microplate reader interfaced with Microplate Manager/PV version 4.0 software (BioRad Laboratories, Hercules, CA, USA). From the absorbance measurements, the half-maximal inhibitory concentration (IC50) value of each compound on ovarian cancer cells was calculated using GraphPad Prism software version 6.0 (Graphpad Holdings, LLC, Boston, MA, USA). […]

[5] = system: cisplatin-resistant A2780 (A2780R) ovarian cancer cells; test: MTT cytotoxicity assay, A2780R; assay type: cell-based, human; conditions: 72 h of treatment, three independent experiments
Procedure: as §2, §3

[6] = system: SKOV-3 ovarian cancer cells; test: MTT cytotoxicity assay, SKOV-3; assay type: cell-based, human; conditions: SKOV-3, 72 h of treatment, three independent experiments
Procedure: as §2, §3

[7] = system: thioredoxin reductase (TrxR); conditions: A2780 cells, 24 h of treatment at the 72 h exposure IC50 dose
Procedure: The analysis was performed in triplicate.
Experiments were performed in triplicate.

[8] = system: thioredoxin reductase (TrxR); set-up: method as in PMID 32497830; conditions: auranofin, previously demonstrated; cited from earlier work

For `CCP(CC)CC.[Au+].[Cl-]` [Au(PEt3)Cl], the Water solubility [1] is listed as 0.68 millimolar and the LogP [2] is listed as 1.7.

For `CC[P](CC)(CC)[Au][I]` [Au(PEt3)I], the Water solubility [1] is listed as 0.08 millimolar and the LogP [2] is listed as 4.6.

In the case of `CO[PH](OC)(OC)[Au][S]C1OC(COC(C)=O)C(OC(C)=O)C(OC(C)=O)C1OC(C)=O` (stereo not shown) [AuP(OCH3)3SAtg], the Water solubility [1] is reported as 2.76 millimolar, the LogP [3] is reported as −0.7 and the IC50 [4] is reported as 1260 ± 220 nM. For the same molecule, the IC50 [5] was 2980 ± 230 nM, the IC50 [6] was 2440 ± 320 nM and the “residual TrxR enzyme activity with respect to controls” value [7] was “about 55%”.

In the case of `CC(=O)OC[C@H]1O[C@@H]([S-])[C@H](OC(C)=O)[C@@H](OC(C)=O)[C@@H]1OC(C)=O.CCP(CC)CC.[Au+]` [auranofin, 1-Thio-β-D-glucopyranosatotriethylphosphine gold-2,3,4,6-tetraacetate], the Water solubility [1] is given as 0.34 millimolar, the LogP [2] is given as 1.6 and the “inhibition of TrxR activity” value [8] is given as 40–50%.
